Results from PubChem BioAssay (NCI).
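Protocol summary: plate cells (96-well), add compound at 5 concentrations, incubate 48 h, interpolate endpoints linearly. At the GI50, growth is halved. The concentration for full growth arrest is given as TGI.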

Columns and labels:
Assay in all cases: inhibition of tumour cell growth, NCI panel, 48 h
DU-145 prostate = test system: DU-145 prostate
HOP-62 NSCLC = test system: HOP-62 NSCLC
HT29 colon = test system: HT29 colon
K-562 leukemia = test system: K-562 leukemia
M14 melanoma = test system: M14 melanoma
MDA-MB-435 = test system: MDA-MB-435
OVCAR-3 ovarian = test system: OVCAR-3 ovarian
OVCAR-8 ovarian = test system: OVCAR-8 ovarian
SK-MEL-2 melanoma = test system: SK-MEL-2 melanoma
UACC-257 melanoma = test system: UACC-257 melanoma

Compound | GI50 (DU-145 prostate) [µM] | TGI (DU-145 prostate) [µM] | GI50 (HOP-62 NSCLC) [µM] | TGI (HOP-62 NSCLC) [µM] | GI50 (HT29 colon) [µM] | TGI (HT29 colon) [µM] | GI50 (K-562 leukemia) [µM] | TGI (K-562 leukemia) [µM] | GI50 (M14 melanoma) [µM] | TGI (M14 melanoma) [µM] | GI50 (MDA-MB-435) [µM] | TGI (MDA-MB-435) [µM] | GI50 (OVCAR-3 ovarian) [µM] | TGI (OVCAR-3 ovarian) [µM] | GI50 (OVCAR-8 ovarian) [µM] | TGI (OVCAR-8 ovarian) [µM] | GI50 (SK-MEL-2 melanoma) [µM] | TGI (SK-MEL-2 melanoma) [µM] | GI50 (UACC-257 melanoma) [µM] | TGI (UACC-257 melanoma) [µM]
COc1cc2c3c(n(CCCN=[N+]=[N-])c(=O)c2cc1OC)-c1ccc([N+](=O)[O-])cc1C3=O | 34.4 | > 100 | 89.7 | > 100 | > 100 | > 100 | > 100 | > 100 | > 100 | > 100 | > 100 | > 100 | > 100 | > 100 | > 100 | > 100 | 36.5 | > 100 | > 100 | > 100
COc1cc2c3c(n(CCCN=[N+]=[N-])c(=O)c2cc1OC)-c1ccc(F)cc1C3=O | 4.19 | > 100 | 4.18 | > 100 | 12.3 | > 100 | 19.3 | > 100 | 5.16 | > 100 | 38.1 | > 100 | 6.11 | > 100 | 21.2 | > 100 | > 100 | > 100 | > 100 | > 100
COc1ccc(Nc2ncc(I)c(NCCCNC(=O)C3CCC3)n2)cc1 | 9.21 | > 100 | 1.64 | 21.8 | 13.1 | 71 | 8.99 | > 100 | 13.4 | > 100 | 17.1 | > 100 | 7.83 | 33.8 | 8.6 | > 100 | 16.8 | 57.1 | 15 | 93
O=c1[nH]c(-c2ccc(Cl)c(Cl)c2)cn1-c1ccc(Cl)cc1 | 29.1 | > 100 | 16.3 | 31.9 | 41.8 | > 100 | 21.5 | 46.9 | 29.7 | > 100 | 60 | > 100 | 27.7 | 59 | 34.7 | > 100 | 24.4 | 64.6 | > 100 | > 100
Oc1ccc(N=Nc2ccc(Br)cc2)c(O)c1 | 3.43 | 17.9 | 3.9 | 19.5 | 15.5 | 77.9 | 1.31 | 3.75 | 2.2 | 5.62 | 1.25 | 3.65 | 3.2 | 14.7 | 3.69 | 21.2 | 2.64 | 12 | 7.52 | 30.7
COc1cc2c(cc1OC)[C@@H]1C(=O)c3ccc4c(c3O[C@@H]1CO2)C[C@H](C(C)C)O4 | 14.5 | > 100 | 9.23 | > 60.6 | 15.4 | > 58.6 | 0.521 | > 41.4 | 7.86 | > 59.4 | 4.06 | > 36.7 | 7.81 | > 41.1 | 3.96 | > 69.9 | 18.5 | 57 | 4.19 | > 57.7
COc1ccc(Sc2[nH]c(C=O)c3ccccc23)cc1 | 6.25 | 21.6 | 15.5 | 29.7 | 4.02 | 14.1 | 2.14 | 14.2 | 12.4 | 26 | 2.68 | 11.5 | 11.9 | 24.2 | 14.1 | 32 | 13.6 | 32.4 | 20.1 | 49.6
OCC1OC(N2C=C(c3nc4ccccc4s3)C3C=CC=CC32)C(O)C(O)C1O (stereo not given) | 20.6 | > 50 | 20.8 | > 50 | 19 | > 50 | 19 | > 50 | 15.3 | > 50 | 11.8 | 28.1 | 14.9 | > 50 | 18.9 | > 50 | 31.7 | > 50 | 14.8 | 42.9
